Data set [1] relates to endogenous COX-2 activity in RAW 264.7 macrophage cells. The data set is described as follows: Confocal live-cell imaging of LPS-activated RAW 264.7 macrophages. The data set is classed as cell-based, mouse. The note with it: CoxFluor 10 μM, 4 h, LPS 1 μg/mL, BSO 200 μM. As for the experimental part: Confocal Fluorescence Live-Cell Imaging of Lipopolysaccharide-activated RAW 264.7 Macrophages. The surface exposed substrate of 4-well chambered cover glasses was coated with R&D Systems™ Cultrex Poly-L-Lysine (Fisher Scientific) using the manufacturer's protocol. Plates were seeded with 180,000 cells per well (500 μL of 360,000 cells/mL in DMEM media supplemented with 10% FBS) and were allowed to incubate for 38 h at 37° C. with 5% CO2 (70-80% confluent). […] The cells were incubated under these conditions for 17 h at 37° C. with 5% CO2. […] Finally, the cells were stained under identical conditions supplemented with 10 μM CoxFluor (500 μL final volume containing 1.5% DMSO final concentration). After incubation at 37° C. with 5% CO2 for 4 h, each well was imaged using a Zeiss LSM 700 confocal microscope (n=3 technical replicates; n=4 biological replicates). Images were quantified over the entire imaging window, without any processing, using ImageJ (v. 1.51, NIH). All images were processed using identical parameters and false colored (LUT: jet.lut) in ImageJ.

For data set [2], the system named is horseradish peroxidase, bovine catalase, porcine esterase, human CYP2J2 (with cytochrome reductase), rat liver microsomes. The data set is described as follows: Enzyme selectivity panel (off-target activation). The data set is classed as biochemical. The note with it: 10-fold excess protein (1.01 U vs 0.101 U COX-2), CoxFluor 10 μM. The procedure:
Enzyme Selectivity. Enzyme activity was defined as the amount substrate (μmol) consumed during one minute by one milligram of enzyme in 100 mM Tris-HCl at pH 8.0 under saturating conditions. Enzyme concentrations were measured using the BCA assay (Thermo Fisher Scientific) according to the published protocol with bovine serum albumin for the standard curve. COX-1 and COX-2 cyclooxygenase activities were measured using Strathkelvin oxygen electrode with arachidonic acid (200 μM). The oxygen electrode was calibrated using 1% sodium sulfite for 0% oxygen and atmosphere equilibrated 100 mM Tris-HCl at pH 8.0 for 100% oxygen. The reaction was monitored at 37° C. in a glass chamber with a total reaction volume of 1 mL. […]
Porcine esterase activity was measured spectroscopically at 405 nm using p-nitrophenyl acetate (1.5 mM) as the substrate. Bovine catalase activity was measured using a discontinuous Amplex® Red-horseradish peroxidase assay to quantify the amount of hydrogen peroxide (initially 31.25 μM) remaining after 0.5 h incubation with excitation at 540 nm and emission at 590 nm. CYP2J2 activity was measured spectroscopically at 340 nm using […] (3-fold excess), NADPH (1 mM), and arachidonic acid (70 μM) as the substrate. […]
Selectivity was assessed using 10-fold excess protein (350 μg/mL) and the solution was brought to a pH of 8.0 after 4 h with 0.5 M aq. […]

For data set [3], the system named is RAW 264.7 macrophage cells. The data set is described as follows: Cell viability (trypan blue exclusion and MTT) in RAW 264.7 macrophage cells. Format: cell-based, mouse. The note with it: 6 h incubation. The procedure: Trypan Blue Exclusion Cytotoxicity Assay. 6-well plates were seeded with 300,000 cells per well (2 mL of 150,000 cells/mL) and incubated at 37° C. with 5% CO2 for 48 to 72 h (˜60-80% confluent). Media was removed and replaced with either 5, 10, or 25 μM CoxFluor in fresh serum-free DMEM media (1.25% DMSO v/v final concentration). […] The trypsin was quenched with the addition of 1.8 mL DMEM media containing 10% FBS and the cells were mixed thoroughly before diluting 1:1 with trypan blue (0.4% in PBS w/v). Percent viability was measured using a Countess® II FL Automated Cell Counter (Thermo Fisher Scientific), where the parameters were optimized to identify live and dead cells. Viability was calculated by the relative to the vehicle control.
MTT Cytotoxicity Assay. […] The media was removed at various time points (3 or 6 h) and replaced with 200 μL 20:1 mixture of FBS-free DMEM and (3-(4,5-dimethylthiazol-2-yl)-2,5-diphenyl-tetrazolium bromide (MTT, 5 mg/mL stock in PBS). The cells were incubated for 4 h under the same conditions and then the medium was removed and replaced with DMSO (200 μL/well). The absorbance of each well was recorded after a 1:5 dilution in DMSO at 555 nm on a microplate reader. Viability was calculated by the absorbance relative to the vehicle control.

Data set [4] can be described thus: Photophysical characterization. Format: physicochemical. As for the experimental part:
Photophysical Characterization. Extinction coefficients and fluorescence quantum yields were acquired (n=3) and reported as the average with a relative standard deviation less than 15%. Extinction coefficients were acquired by titrating compound in 100 mM Tris-HCl (pH 8.0) within the linear range. Fluorescence quantum yields were obtained using the modified method for relative fluorescence quantum yield. Dye was titrated into the solution and the absorbance and emission were monitored (excitation at 540 nm). The absorbance was maintained below 0.1 to limit secondary absorbance events. Total emission spectra were integrated, and the relative quantum yield was calculated relative to Rhodamine B (ϕ=0.70, ethanol). The refractive index of 100 mM Tris-HCl (pH 8.0) was measured to be 1.33514.

Turning to `CCCCC/C=C\C/C=C\C/C=C\C/C=C\CCCC(=O)N1c2ccc(O)cc2Oc2cc(O)ccc21` [CoxFluor], in data set [1], the “fluorescent enhancement for LPS-stimulated cells relative to the control” value stood at 1.2 fold. The “selectivity against tested enzymes” value in data set [2] was “good selectivity”. In addition, the cell viability entry in data set [3] was “suitable viability”. Also, the “extinction coefficient ε at 572 nm” value in data set [4] (100 mM Tris-HCl pH 8.0) stood at 820 M⁻¹ cm⁻¹. Also, the “fluorescence quantum yield ΦF” value in data set [4] (100 mM Tris-HCl pH 8.0, relative to Rhodamine B) was 0.29.

Source of the values: patent US12053533B2, “Fluorescent probe for cyclooxygenase-2” (The Board of Trustees of the University of Illinois, priority 2020, dated 2024).
